The values below come from patent US6353119B1, “Preparation of 3-substituted-4-arylquinolin-2-one derivatives” (Bristol-Myers Squibb Company, priority 1999, dated 2002).

Series [1] has as its system cloned mammalian (mSlo or hSlo) BK channels heterologously expressed in Xenopus oocytes. Kind of series: BK-mediated outward current in Xenopus oocytes, two-electrode voltage clamp. The series is classed as cell-based, Xenopus oocyte. To be noted: at 20 μM; IBTX-sensitive current; at least 5 oocytes. As to the method:
The ability of compounds described in the present invention to open BK channels and increase whole-cell outward (K^+) BK-mediated currents was assessed under voltage-clamp conditions by determining their ability to increase cloned mammalian (mSlo or hSlo) BK-mediated outward current heterologously expressed in Xenopus oocytes [Butler, A., et al., Science, 261: 221-224 (1993); and Dworetzky, S. I., et al., Mol. Brain Res., 27: 189-193 (1994)]. The two BK constructs employed represent nearly structurally identical homologous proteins, and have proven to be pharmacologically identical in our tests. To isolate BK current from native (background, non-BK) current, the specific and potent BK channel-blocking toxin iberiotoxin (IBTX) [Galvez, A., et al., J. Biol. Chem., 265: 11083-11090 (1990)] was employed at a supramaximal concentration (50 nM). The relative contribution of BK channels current to total outward current was determined by subtraction of the current remaining in the presence of IBTX (non-BK current) from the current profiles obtained in all other experimental conditions (control, drug, and wash). […] All compounds were tested in at least 5 oocytes and are reported at the single concentration of 20 μM; the effect of the selected compounds of Formula I on BK current was expressed as the percent of control IBTX-sensitive current and is listed in Table 1. […]

Series [2] deals with ICP/BP responses elicited by stimulation of the cavernous nerve. Kind of series: In vivo erectile function model, intracavernous pressure response to cavernous nerve stimulation. More on the design: species or system rat. To be noted: 0.1-1 mg/kg i.v.; anesthetized rats. From the text:
The in vivo model on erectile function is described fully in the scientific literature (Rehman, J., Chenven, E., Brink, P. Peterson, B., Wolcott, B., Wen, Y. P., Melman, A., Christ, G.: Diminished neurogenic but not pharmacological erections in the 2- to 3-month experimentally diabetic F-344 rat. Am. J. Physiol. 272: H1960-H1971, 1997). Briefly, rats (250-600 g) were anesthetized using sodium pentobarbital, the abdomen opened and the cavernous nerve identified. A pressure catheter was placed in the right corpus cavernosum (crus) to measure intracavernous pressure (ICP). A second catheter was introduced into the carotid artery to measure blood pressure. Test compound (0.1, 0.3 and 1 mg/kg i.v.) or vehicle (PEG 400) was given via a catheter placed into the jugular vein.
Control intracavernous pressure responses were elicited by electrically stimulating the cavernous nerve via bipolar stimulating electrodes (20 Hz, 0.22 ms pulse width). Stimulus amplitude (0.2-20 mA) was adjusted to produce a submaximal intracavernous pressure response (typically 0.2 or 0.5 mA). A series of control intracavernous pressure responses were then obtained using a constant stimulus amplitude. Test compound or vehicle was then administered (200 μl i.v bolus) and the cavernous nerve was restimulated to evoke a cavernous pressure response at various times post-drug administration. […]

In series [3] the test system is permanent MCAO focal stroke model. Kind of series: Permanent focal ischemia, middle cerebral artery occlusion (MCAO) model. The series is classed as in vivo, spontaneously hypertensive rat. To be noted: 0.003 mg/kg i.v. single bolus 2 hours after MCAO; infarct measured 24 hours after MCAO; vs vehicle-treated control. From the text:
To determine the ability of these compounds to reduce cell loss resulting from neuronal ischemia, a standard rodent model of permanent focal ischemia, involving occlusion of the middle cerebral artery in the spontaneously hypertensive rat (middle cerebral artery occlusion (MCAO) model) was employed [Tamura, A., et al., Journal of Cerebral Blood Flow and Metabolism, Volume 1, 53-60, (1981)]. Selected compounds have been evaluated in the focal stroke model involving permanent MCAO in the spontaneously hypertensive rat. This procedure results in a reliably large neocortical infarct volume that is measured by means of vital dye exclusion in serial slices through the brain 24 hours after MCAO. In the present test, compounds were administered using an intravenous route of administration at 2 hours after occlusion.

SMILES strings stand for the structures.

Consider `O=c1[nH]c2ccc(C(F)(F)F)cc2c(-c2cc(Cl)ccc2O)c1CCO` [Example 4, 4-(5-Chloro-2-hydroxyphenyl)-3-(2-hydroxyethyl)-6-(trifluoromethy)-2(1H)-quinolinone], for which, in series [1], the “BK Current, percent increase over BK current in controls” value is recorded as “++ (++ = >200%)”. Also, the “ICP/BP responses elicited by sub-maximal stimulation of the cavernous nerve” value in series [2] is “produced an augmentation of the ICP/BP responses”.
Usually melting point stands for the temperature of the solid-liquid transition. On to `COc1ccc(Cl)cc1-c1c(CCO)c(=O)[nH]c2ccc(C(F)(F)F)cc12` [Example 5, 4-(5-Chloro-2-methoxyphenyl)-3-(2-hydroxyethyl)-6-(trifluoromethyl)-2(1H)-quinolinone], for which the melting point was 216 to 217 °C. In addition, in series [1], the “BK Current, percent increase over BK current in controls” value is “++ (++ = >200%)”. Also, the “reduction of cortical infarct volume” value in series [3] is reported as “about 25%”.
